Test results as given in the supplement of paper PMC11281043.

Legend:
[1] = test system: Danio rerio embryo/larva; experiment: BMC spinal defects; higher = less potent; details: max tested concentration (log10 uM): 2; exposure: 6-8 hpf to 5 dpf, scored at 6 dpf
Experimental: (§1)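 Zebrafish embryos (with chorion) were exposed from 6-8 hpf to each PFAS (8-point half-log series, top concentration up to 100 uM, 0.4% DMSO, sealed plates, 26 C; n = 6 embryos per concentration), rinsed at 5 dpf and scored at 6 dpf by two blinded observers for mortality, hatching and malformations. Endpoint scores are the % of living larvae affected (dead larvae excluded; […]). Curves were fitted with tcpl (cutoff 16%), and the BMC is the concentration at a benchmark response of 21.6%.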

[2] = test system: Danio rerio embryo/larva; experiment: BMC swim bladder non-inflation; higher = less potent; details: exposure: 6-8 hpf to 5 dpf, scored at 6 dpf
Experimental: as §1

[3] = test system: Danio rerio embryo/larva; experiment: BMC any abnormality; max tested concentration (log10 uM): 2; higher = less potent; details: exposure: 6-8 hpf to 5 dpf, scored at 6 dpf
Experimental: as §1

[4] = test system: Danio rerio embryo/larva; experiment: BMC mortality; max tested concentration (log10 uM): 2; higher = less potent; details: exposure: 6-8 hpf to 5 dpf, scored at 6 dpf
Experimental: as §1

[5] = test system: Danio rerio embryo/larva; experiment: BMC edema; higher = less potent; details: exposure: 6-8 hpf to 5 dpf, scored at 6 dpf
Experimental: as §1

[6] = test system: Danio rerio embryo/larva; experiment: max % larvae dead across tested concentrations; max tested concentration (log10 uM): 2; higher = more toxic; extreme values may be limits of the assay; details: exposure: 6-8 hpf to 5 dpf, scored at 6 dpf
[7] = test system: Danio rerio embryo/larva; experiment: max % larvae with any abnormality across tested concentrations; max tested concentration (log10 uM): 2; higher = more toxic; extreme values may be limits of the assay; details: exposure: 6-8 hpf to 5 dpf, scored at 6 dpf
[8] = test system: Danio rerio embryo/larva; experiment: BMC abnormal position; higher = less potent; details: exposure: 6-8 hpf to 5 dpf, scored at 6 dpf
Experimental: as §1

[9] = test system: Danio rerio embryo/larva; experiment: max % larvae unhatched across tested concentrations; max tested concentration (log10 uM): 2; higher = more toxic; details: exposure: 6-8 hpf to 5 dpf, scored at 6 dpf
[10] = test system: Danio rerio embryo/larva; experiment: max % larvae with any abnormality across tested concentrations; max tested concentration (log10 uM): 1.90309; higher = more toxic; extreme values may be limits of the assay; details: exposure: 6-8 hpf to 5 dpf, scored at 6 dpf
[11] = test system: Danio rerio embryo/larva; experiment: max % larvae unhatched across tested concentrations; max tested concentration (log10 uM): 1.90309; higher = more toxic; details: exposure: 6-8 hpf to 5 dpf, scored at 6 dpf
[12] = test system: Danio rerio embryo/larva; experiment: BMC any abnormality; max tested concentration (log10 uM): 1.90309; higher = less potent; details: exposure: 6-8 hpf to 5 dpf, scored at 6 dpf
Experimental: as §1

[13] = test system: Danio rerio embryo/larva; experiment: BMC craniofacial defects; higher = less potent; details: exposure: 6-8 hpf to 5 dpf, scored at 6 dpf
Experimental: as §1

[14] = test system: Danio rerio embryo/larva; experiment: BMC blood pooling; max tested concentration (log10 uM): 1.90309; higher = less potent; details: exposure: 6-8 hpf to 5 dpf, scored at 6 dpf
Experimental: as §1

[15] = test system: Danio rerio embryo/larva; experiment: BMC tail defects; max tested concentration (log10 uM): 1.90309; higher = less potent; details: exposure: 6-8 hpf to 5 dpf, scored at 6 dpf
Experimental: as §1

[16] = test system: Danio rerio embryo/larva; experiment: max % larvae dead across tested concentrations; max tested concentration (log10 uM): 1.30103; higher = more toxic; extreme values may be limits of the assay; details: exposure: 6-8 hpf to 5 dpf, scored at 6 dpf
[17] = test system: Danio rerio embryo/larva; experiment: max % larvae with any abnormality across tested concentrations; max tested concentration (log10 uM): 1.30103; higher = more toxic; extreme values may be limits of the assay; details: exposure: 6-8 hpf to 5 dpf, scored at 6 dpf
[18] = test system: Danio rerio embryo/larva; experiment: max % larvae unhatched across tested concentrations; max tested concentration (log10 uM): 1.30103; higher = more toxic; details: exposure: 6-8 hpf to 5 dpf, scored at 6 dpf
[19] = test system: Danio rerio embryo/larva; experiment: BMC tail defects; max tested concentration (log10 uM): 2; higher = less potent; details: exposure: 6-8 hpf to 5 dpf, scored at 6 dpf
Experimental: as §1

[20] = test system: Danio rerio embryo/larva; experiment: BMC blood pooling; max tested concentration (log10 uM): 2; higher = less potent; details: exposure: 6-8 hpf to 5 dpf, scored at 6 dpf
Experimental: as §1

[21] = max tested concentration (log10 uM): 2
[22] = max tested concentration (log10 uM): 1
[23] = max tested concentration (log10 uM): 1.90309
[24] = max tested concentration (log10 uM): 0.477121

Compound | BMC swim bladder non-inflation [2, 21] [µM] | BMC any abnormality [3] [µM] | BMC mortality [4] [µM] | BMC edema [5, 21] [µM] | max % larvae dead across tested concentrations [6] [%] | max % larvae [7] [%] | BMC abnormal position [8, 21] [µM] | max % larvae unhatched across tested concentrations [9] [%] | also measured
O=S(=O)(Cl)C(F)(F)C(F)(F)C(F)(F)C(F)(F)C(F)(F)C(F)(F)C(F)(F)C(F)(F)F [Perfluoro-1-octanesulfonyl chloride] | 10.4 | 10.4 | 77.9 | 29.4 | 83.3 | 100 | 92 | 0 | BMC spinal defects [1]: 95.8 µM
O=C(O)C(F)(F)OC(F)(F)C(F)(F)OC(F)(F)C(F)(F)OC(F)(F)C(F)(F)C(F)(F)C(F)(F)F [Perfluoro-3,6,9-trioxatridecanoic acid] | – | 2.47 | 7.79 | – | 100 | 100 | – | 0 | BMC swim bladder non-inflation [2, 22]: 1.3 µM; BMC edema [5, 22]: 3.13 µM; BMC abnormal position [8, 22]: 8.04 µM
O=S(=O)(O)C(F)(F)C(F)(F)C(F)(F)C(F)(F)C(F)(F)C(F)(F)C(F)(F)F [Perfluoroheptanesulfonic acid] | – | – | – | – | – | – | – | – | BMC swim bladder non-inflation [2, 23]: 15.6 µM; max % larvae [10]: 100%; BMC edema [5, 23]: 18.5 µM; max % larvae unhatched across tested concentrations [11]: 0%; BMC abnormal position [8, 23]: 17.7 µM; BMC any abnormality [12]: 15.6 µM; BMC craniofacial defects [13, 23]: 18.1 µM; BMC blood pooling [14]: 61 µM; BMC tail defects [15]: 27 µM
NS(=O)(=O)C(F)(F)C(F)(F)C(F)(F)C(F)(F)C(F)(F)C(F)(F)F [Perfluorohexanesulfonamide] | – | 1.45 | – | – | – | 100 | – | 0 | BMC swim bladder non-inflation [2, 24]: 2.28 µM; BMC edema [5, 24]: 1.66 µM; BMC abnormal position [8, 24]: 2.67 µM; BMC craniofacial defects [13, 24]: 2.4 µM
O=S(=O)(O)C(F)(F)C(F)(F)C(F)(F)C(F)(F)C(F)(F)C(F)(F)F [Perfluorohexanesulfonic acid] | 34.1 | 30.2 | – | 31.7 | – | 100 | 90.6 | 0 | BMC craniofacial defects [13, 21]: 78.9 µM
O=C(O)C(F)(F)C(F)(F)C(F)(F)C(F)(F)C(F)(F)C(F)(F)C(F)(F)C(F)(F)F [Perfluorononanoic acid] | 25.5 | 25.5 | 73.9 | 28 | 75 | 100 | 87.8 | 0 | –
O=S(=O)(O)C(F)(F)C(F)(F)C(F)(F)C(F)(F)C(F)(F)C(F)(F)C(F)(F)C(F)(F)F [Perfluorooctanesulfonic acid] | – | 7.48 | 9.38 | – | 100 | 100 | – | 0 | BMC swim bladder non-inflation [2, 22]: 8.02 µM; BMC edema [5, 22]: 8.58 µM; BMC abnormal position [8, 22]: 9.2 µM; BMC craniofacial defects [13, 22]: 8.4 µM
O=C(O)C(F)(F)C(F)(F)C(F)(F)C(F)(F)C(F)(F)C(F)(F)C(F)(F)C(F)(F)C(F)(F)C(F)(F)C(F)(F)C(F)(F)C(F)(F)F [Perfluorotetradecanoic acid] | – | – | – | – | – | – | – | – | max % larvae dead across tested concentrations [16]: 0%; max % larvae [17]: 12.5%; max % larvae unhatched across tested concentrations [18]: 0%
O=C(O)C(F)(F)C(F)(F)C(F)(F)C(F)(F)C(F)(F)C(F)(F)C(F)(F)C(F)(F)C(F)(F)C(F)(F)C(F)(F)C(F)(F)F [Perfluorotridecanoic acid] | – | – | – | – | – | – | – | – | max % larvae dead across tested concentrations [16]: 0%; max % larvae [17]: 16.7%; max % larvae unhatched across tested concentrations [18]: 0%
O=S(=O)(O)C(F)(F)C(F)(F)C(F)(F)C(F)(F)C(F)(F)C(F)(F)C(F)(F)C(F)(F)F [Potassium perfluorooctanesulfonate] | 2.81 | 2.77 | – | 4.65 | – | 100 | 3.99 | 0 | BMC spinal defects [1]: 26 µM; BMC craniofacial defects [13, 21]: 8.25 µM; BMC tail defects [19]: 27.8 µM; BMC blood pooling [20]: 10.5 µM
